The subject of one test is RS4;11 cells. Put plainly: Cell viability assay (CellTiter-Glo) in RS4;11 cell line. The class given is cell-based. As to conditions: 24 hours, 10% Human Serum, 50% decrease in cell viability. An excerpt: (§1) The acute lymphoblastic leukemia (ALL) human cell line RS4;11 (ATCC, Manassas VA) was used as the primary human cell line to assess the cellular activity of compound of the present Examples in vitro and their efficacy in vivo. BH3 profiling, a mitochondrial assay that classifies blocks in the intrinsic apoptotic pathway, has shown that RS4;11 cells were highly dependent on Bcl-2 protein for survival and were sensitive to a Bcl-2 inhibitor (Blood. 2008; 111(4):2300-2309). […] The acute lymphoblastic leukemia cell line Molt-4, which is derived from immature T-lymphoid cells (T-ALL), was used as a counter screen assay.
(§2) Frozen RS4;11 or Molt-4 cells (ATCC, Manassas, VA, USA) were thawed overnight in RPMI 1640 media (Thermo Fisher Scientific, Waltham, MA, USA) supplemented with 1% penicillin/streptomycin (Thermo Fisher Scientific, Waltham, MA, USA), and 10% Human Serum (Sigma, St. Louis, MO, USA). 3000 Cells (0.1×10^6/mL) were seeded in each well of 384-well plate and were treated for 24 hours in a humidified chamber with 5% CO2. Cell viability was determined by CellTiter-Glo as described by the manufacturer's instructions (Promega Corporation, Madison, WI, USA). Responses were determined as a percentage of the control treated cells and the effective concentration (EC50) to induce a 50% decrease in cell viability were determined from sigmoidal dose-response curves using Dotmatics (Dotmatics Software Company, Bishops Stortford, Hertfordshire, England).
A general note: In ATP-based viability assays light output follows the ATP content of the culture.

For the next test, the system named is Molt-4 cells. In words: Cell viability counter screen assay (CellTiter-Glo) in Molt-4 cells. Format: cell-based. As to conditions: 24 hours, 10% Human Serum, 50% decrease in cell viability.
From the text: as §1, §2

The structures appear in SMILES notation. pEC50: −log10 of the molar value.

In general, pEC50 refers to the EC50 on a negative log10 scale, so that one unit is a factor of ten. `CC1(C)CC(c2ccc(Cl)cc2)=C2CN3CCN(c4ccc(C(=O)NS(=O)(=O)c5ccc(NC[C@@H]6CC[C@@H](O)CO6)c([N+](=O)[O-])c5)c(N5CCCOc6nc7[nH]ccc7cc65)c4)C[C@H]3COCCCO[C@@H]2C1` [Example 27, 4-((4aS,10aR)-14-(4-chlorophenyl)-12,12-dimethyl-1,2,4a,5,8,9,10a,11,13,15-decahydro-7H,12H-benzo[f]pyrazino[2,1-c][1,8]dioxa[4]azacycloundecin-3(4H)-yl)-2-(3,4-dihydro-2H-pyrrolo[3′,2′:5,6]pyrido[2,3-h][1,4]oxazepin-1(7H)-yl)-N-((4-((((2S,5R)-5-hydroxytetrahydro-2H-pyran-2-yl)methyl)amino)-3-nitrophenyl)sulfonyl)benzamide]: the negative logarithm of the EC50 (pEC50) in the test on RS4;11 cells was 9.48; with Molt-4 cells, 6.27.

Take `COC1(CNc2ccc(S(=O)(=O)NC(=O)c3ccc(N4CCN5CC6=C(c7ccc(Cl)cc7)CC(C)(C)C[C@H]6OCCCOC[C@@H]5C4)cc3N3CCCOc4nc5[nH]ccc5cc43)cc2[N+](=O)[O-])CCOCC1` [Example 26, 4-((4aS,10aR)-14-(4-chlorophenyl)-12,12-dimethyl-1,2,4a,5,8,9,10a,11,13,15-decahydro-7H,12H-benzo[f]pyrazino[2,1-c][1,8]dioxa[4]azacycloundecin-3(4H)-yl)-2-(3,4-dihydro-2H-pyrrolo[3′,2′:5,6]pyrido[2,3-b][1,4]oxazepin-1(7H)-yl)-N-((4-(((4-methoxytetrahydro-2H-pyran-4-yl)methyl)amino)-3-nitrophenyl)sulfonyl)benzamide]: the values for the pEC50 in the test with RS4;11 cells and in the test with Molt-4 cells were 8.36 and below 5.00, respectively.

Turning to `CC1(C)CC(c2ccc(Cl)cc2)=C2CN3CCN(c4ccc(C(=O)NS(=O)(=O)c5ccc(NC[C@H]6CC[C@H](N7CCOCC7)CC6)c([N+](=O)[O-])c5)c(N5CCCOc6nc7[nH]ccc7cc65)c4)C[C@H]3COCCCO[C@@H]2C1` [Example 28, 4-((4aS,10aR)-14-(4-chlorophenyl)-12,12-dimethyl-1,2,4a,5,8,9,10a,11,13,15-decahydro-7H,12H-benzo[f]pyrazino[2,1-c][1,8]dioxa[4]azacycloundecin-3(4H)-yl)-2-(3,4-dihydro-2H-pyrrolo[3′,2′:5,6]pyrido[2,3-h][1,4]oxazepin-1(7H)-yl)-N-((4-((((1r,4r)-4-morpholinocyclohexyl)methyl)amino)-3-nitrophenyl)sulfonyl)benzamide], the pEC50 in the test with RS4;11 cells was 9.06; in the test with Molt-4 cells, 6.56.

On to `CO[C@H]1C[C@H](Nc2ccc(S(=O)(=O)NC(=O)c3ccc(N4CCN5CC6=C(c7ccc(Cl)cc7)CC(C)(C)C[C@H]6OCCCOC[C@@H]5C4)cc3N3CCCOc4nc5[nH]ccc5cc43)cc2[N+](=O)[O-])C1` [Example 30, 4-((4aS,10aR)-14-(4-chlorophenyl)-12,12-dimethyl-1,2,4a,5,8,9,10a,11,13,15-decahydro-7H,12H-benzo[f]pyrazino[2,1-c][1,8]dioxa[4]azacycloundecin-3(4H)-yl)-2-(3,4-dihydro-2H-pyrrolo[3′,2′:5,6]pyrido[2,3-b][1,4]oxazepin-1(7H)-yl)-N-((4-(((1r,3r)-3-methoxycyclobutyl)amino)-3-nitrophenyl)sulfonyl)benzamide], for which the pEC50 in the test with RS4;11 cells was 8.39; in the test with Molt-4 cells it was below 5.00.

As to `CO[C@H]1CC[C@H](CNc2ccc(S(=O)(=O)NC(=O)c3ccc(N4CCN5CC6=C(c7ccc(Cl)cc7)CC(C)(C)C[C@H]6OCCCOC[C@@H]5C4)cc3N3CCCOc4nc5[nH]ccc5cc43)cc2[N+](=O)[O-])CC1` [Example 5, 4-((4aS,10aR)-14-(4-chlorophenyl)-12,12-dimethyl-1,2,4a,5,8,9,10a,11,13,15-decahydro-7H,12H-benzo[f]pyrazino[2,1-c][1,8]dioxa[4]azacycloundecin-3(4H)-yl)-2-(3,4-dihydro-2H-pyrrolo[3′,2′:5,6]pyrido[2,3-b][1,4]oxazepin-1(7H)-yl)-N-((4-((((1r,4r)-4-methoxycyclohexyl)methyl)amino)-3-nitrophenyl)sulfonyl)benzamide], the pEC50 in the test on RS4;11 cells was 8.15; in the test with Molt-4 cells it was 5.35.
